Data from US20240301359A1, “SYSTEM COMPRISING CISPLATIN-RESISTANT XENOGRAFT FOR NASOPHARYNGEAL CARCINOMA AND METHODS THEREOF” (THE UNIVERSITY OF HONG KONG, priority 2023, published 2024).

Tests used:
Assay type in all cases: in vivo
[1] = system: xeno76-CR cisplatin-resistant NPC PDX; experiment: ixazomib treatment of xeno76-CR-bearing nude mice
Description: (§1) Xeno76-CR-bearing nude mice were randomized into the control and 4 mg/kg ixazomib treatment group (n=4). Referring to FIG. 5A, black arrows represent the treatment day. Data presented are mean (n=4) with error bars showing SEM. Statistical significance was done using one-way ANOVA, **** P<0.0001.
(§2) The images of size and appearance of the xeno76-CR tumor-bearing mice between control and treatment groups on day 21 are shown in FIG. 5B. […] In FIG. 5C and FIG. 5D, data presented are means (n=4) with error bars showing the SEM. Statistical significance was done using the unpaired two-tailed t-test. Black arrows represent the treatment day.

[2] = body weight and side effects in ixazomib-treated nude mice
Description: as §1, §2

xeno76 primary NPC = experiment: ixazomib sensitivity of primary NPC PDX xeno76; details: naïve to radio- and chemotherapy, relatively low dosage
xeno113 metastatic NPC = experiment: ixazomib sensitivity of metastatic NPC PDX xeno113; details: relatively low dosage
xeno76 NPC PDX = experiment: cisplatin treatment of xeno76 PDX-bearing nude mice
Description: (§3) Parental xeno76 and xeno76-CR-bearing nude mice were randomized into control and treatment groups (n=4). […] The tumor volume was measured and recorded during the whole treatment period, and the tumor growth curves of xeno76 and xeno76-CR are shown in Error! […] Black arrows represent the treatment day. The xeno76 and xeno76-CR nude mice were randomized respectively on day 0 and received the first treatment. Data presented are mean (n=4) with error bars showing SEM. Statistical significance was done using paired two-tailed t-test, *** P<0.001, ns P>0.05. Furthermore, the tumors of xeno76 and xeno76-CR were also weighed and harvested for further investigation (FIG. 2C). Statistical significance was done using the unpaired two-tailed t-test, ** P<0.01, ns P>0.05.

[3] = system: xeno76-CR cisplatin-resistant NPC PDX; experiment: cisplatin treatment of xeno76-CR PDX-bearing nude mice; details: 3 mg/kg cisplatin weekly i.p., at harvest, ns P>0.05
Description: as §3

[4] = maximum tolerated dose of cisplatin in nude mice; details: weekly i.p.
Source text: A protocol for developing cisplatin-resistant PDX model from the NPC PDX models is described. NPC PDX tissues were implanted in nude mice subcutaneously (FIG. 1).

Row | SMILES | sensitivity to ixazomib ([1]; cisplatin-resistant NPC (xeno76-CR), relatively low dosage, summary statement) | tumor weight at the endpoint of the experiment ([1]; xeno76-CR, 4 mg/kg ixazomib, n=4 mean, control group 0.52 g, * P<0.05) [g] | tumor growth (tumor volume) vs control ([1]; xeno76-CR, 4 mg/kg ixazomib, three-week treatment, n=4, **** P<0.0001) | observable side effects or weight loss ([2]; 4 mg/kg ixazomib, xeno76-CR bearing nude mice) | side effects and body weight loss ([2]; all the tested animals, summary statement) | sensitivity to ixazomib (xeno76 primary NPC) | sensitivity to ixazomib (xeno113 metastatic NPC) | tumor growth (tumor volume) vs control (xeno76 NPC PDX; 3 mg/kg cisplatin in saline weekly i.p., n=4, *** P<0.001) | tumor weight vs control (xeno76 NPC PDX; 3 mg/kg cisplatin weekly i.p., at harvest) | tumor weight vs control [3] | maximum tolerated dose [4] [mg/kg]
1 | CC(C)C[C@H](NC(=O)CNC(=O)c1cc(Cl)ccc1Cl)B(O)O [ixazomib] | sensitive to ixazomib | 0.21 | effectively inhibited xeno76-CR growth | did not induce any observable side effects or weight loss | no side effects and body weight loss | sensitive to ixazomib | sensitive to ixazomib |  |  |  | 
2 | N.N.[Cl][Pt][Cl] [cisplatin] |  |  |  |  |  |  |  | significantly inhibited | significantly lighter than the xeno76 control group | no significant differences | 5
